Data taken from US20240325303A1, “KETOROLAC LIQUID COMPOSITION, PREPARATION METHOD THEREFOR, AND APPLICATION THEREOF” (SHANGHAI AURORA BIOTECHNOLOGY CO., LTD., priority 2021, published 2024).

Experiments:
[1] = compared with morphine; cited from earlier work
[2] = multiple tests; cited from earlier work
[3] = standard animal models for analgesic effect; cited from earlier work
human plasma protein = assay: in vitro
Description: Samples at the dosing and receiving ends and at the preparation instant (0 h) were assayed by LC-MS/MS, and the plasma protein binding (PPB) rates and the recovery rates were calculated based on the assay results. The plasma samples and PBS samples prepared from the test samples and the commercially available controls were incubated at 37° C. for 6 h with oscillation (100 rpm) and then assayed for stability.

SMILES	relieving postsurgical pain [1]	anti-inflammatory activity compared with indomethacin, naproxen, phenylbutazone [2]	analgesic activity compared with indomethacin, naproxen, phenylbutazone [3]	analgesic activity relative to aspirin [3]	recovery at 6 h, 300 ng/mL (human plasma protein)
O=C(c1ccccc1)c1ccc2n1CCC2C(=O)O (centres unmarked) [Ketorolac tromethamine]	superior to morphine	equivalent to or stronger than that of indomethacin, stronger than that of naproxen, and significantly better than that of phenylbutazone	stronger than that of indomethacin and naproxen, and equivalent to or better than that of phenylbutazone	800 times	–
CC(=O)CC(c1ccccc1)c1c(O)c2ccccc2oc1=O (centres unmarked) [Warfarin]	–	–	–	–	96.2%
